Like-named read-outs stand apart in the source and are kept apart here.
How the values were obtained:
[1] = tested on: influenza A H1N1 virus; conditions: 48 hr post-treatment, A549
[2] = tested on: EBV; conditions: normalized mean of EBV replication readout
[3] = tested on: F. novicida (strain U112); type: cell-based
[4] = tested on: HCV replicon; type: cell-based; conditions: normalized mean of HCV replicon readout
[5] = tested on: HIV1 strain NL4-3; type: cell-based; conditions: normalized mean of HIV1 replication readout

Substance	Neuraminidase activity normalized to vehicle ([1]; 200 µM peptide)	Neuraminidase activity normalized to vehicle ([1]; 0,823 µM peptide)	Neuraminidase activity normalized to vehicle ([1]; 22,2 µM peptide)	Neuraminidase activity normalized to vehicle ([1]; 2,4691 µM peptide)	Neuraminidase activity normalized to vehicle ([1]; 7,4074 µM peptide)	Neuraminidase activity normalized to vehicle ([1]; 66,6667 µM peptide)	EBV Norm MEAN [2]	Francisella novicida Norm AUC [3]	HCV Norm MEAN [4]	HIV1 Norm MEAN [5]	EBV Norm MEAN ([2]; peptide screen)	HCV Norm MEAN ([4]; peptide screen)	HIV1 Norm MEAN ([5]; peptide screen)
AAAVAFL [CPEP117]	0,72	0,8345	0,8782	0,8234	0,8773	0,8792	1.118	0.9738	0.1615	0.6808	–	–	–
ACTNCYCKKCCFHCQVC [CPEP100]	1,0893	1,092	1,1329	0,9938	1,0674	1,0274	–	1.04	–	–	1.687	0.4928	0.1546
AHQNSQTHQASLSKQ [CPEP43]	0,8034	0,7858	0,9843	0,876	0,8511	0,7841	–	1.137	–	–	0.682	1.077	0.3977
ARARALARGAGPANSV [CPEP47]	1,0179	1,0745	1,1923	1,0399	1,1089	1,0424	–	0.949	–	–	1.295	1.1445	2.79
CMSCCRSSRTRRETQL [CPEP57]	0,9828	1,0672	1,1821	0,702	1,111	0,9599	–	0.5573	–	–	0.8928	0.7555	1.032
CPEP14: peptide of the viral peptide library; sequence page not shown (ILHTPGCVPCVR)	0,9254	0,9272	1,0033	0,9392	0,9017	1,0554	1.5484	1.22	0.5608	0.4683	–	–	–
CPEP52: peptide of the viral peptide library; sequence page not shown (CFITKALGISYG)	0,1673	0,9576	1,0146	1,1215	0,9392	0,5319	2.225	2.021	0.3655	5.563	–	–	–
CPEP61: peptide of the viral peptide library; sequence page not shown (KRRKSGAKRR)	0,867	1,0166	1,0577	1,0813	0,9769	1,1022	3.372	0.6493	0.1619	1.461	–	–	–
CPEP63: peptide of the viral peptide library; sequence page not shown (KARHKRRNRSSRS)	0,8323	0,6161	0,9172	1	0,9177	0,9488	1.249	1.1166	0.5995	0.7086	–	–	–

Reference: publication PMC10835127, “Viruses traverse the human proteome through peptide interfaces that can be biomimetically leveraged for drug discovery” (Proceedings of the National Academy of Sciences of the …, 2024)
